Test [1] addresses Ephrin type-A receptor 5 (Homo sapiens) (UniProt P54756). The experiment in a line: Inhibition of human recombinant EphA5 at 40 nM related to control ULK1.
Test [2] has as its target Serine/threonine-protein kinase MRCK alpha (Homo sapiens) (UniProt Q5VT25). Put plainly: Inhibition of human recombinant MRCKa at 40 nM related to control ULK1.
The target in test [3] is T1, Tyrosine-protein kinase TXK (Homo sapiens) (UniProt P42681).
T1 sequence (whole entry): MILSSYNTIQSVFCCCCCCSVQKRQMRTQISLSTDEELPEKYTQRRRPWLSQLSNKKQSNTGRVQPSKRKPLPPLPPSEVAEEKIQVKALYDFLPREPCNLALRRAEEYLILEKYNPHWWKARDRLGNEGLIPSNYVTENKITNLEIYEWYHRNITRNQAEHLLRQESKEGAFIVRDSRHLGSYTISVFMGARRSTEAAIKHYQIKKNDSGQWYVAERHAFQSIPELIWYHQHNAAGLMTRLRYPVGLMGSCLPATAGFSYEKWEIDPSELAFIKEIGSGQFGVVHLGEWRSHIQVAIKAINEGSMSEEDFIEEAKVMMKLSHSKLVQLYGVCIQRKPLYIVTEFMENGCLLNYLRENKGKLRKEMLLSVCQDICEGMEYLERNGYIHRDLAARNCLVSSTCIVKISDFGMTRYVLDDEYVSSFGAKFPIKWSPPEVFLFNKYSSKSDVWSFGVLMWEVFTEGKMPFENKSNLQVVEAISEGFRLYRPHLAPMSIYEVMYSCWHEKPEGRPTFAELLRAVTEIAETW
Put plainly: Inhibition of human recombinant TXK at 40 nM in presence of ATP by radiometric assay relative to control.

Test [4] has as its target Tyrosine-protein kinase JAK1 (Homo sapiens) (UniProt P23458). Put plainly: Inhibition of human recombinant JAK1 at 40 nM in presence of ATP by radiometric assay relative to control.
Test [5] has as its target Tyrosine-protein kinase Lyn (Homo sapiens) (UniProt P07948). Put plainly: Inhibition of human recombinant LYN at 40 nM in presence of ATP by radiometric assay relative to control.
Test [6] deals with Serine/threonine-protein kinase N1 (Homo sapiens) (UniProt Q16512). Put plainly: Inhibition of human recombinant PKN1 at 40 nM in presence of ATP by radiometric assay relative to control.
Serine/threonine-protein kinase N1 (Homo sapiens), sequence (Q16512 2-942 limits assumed): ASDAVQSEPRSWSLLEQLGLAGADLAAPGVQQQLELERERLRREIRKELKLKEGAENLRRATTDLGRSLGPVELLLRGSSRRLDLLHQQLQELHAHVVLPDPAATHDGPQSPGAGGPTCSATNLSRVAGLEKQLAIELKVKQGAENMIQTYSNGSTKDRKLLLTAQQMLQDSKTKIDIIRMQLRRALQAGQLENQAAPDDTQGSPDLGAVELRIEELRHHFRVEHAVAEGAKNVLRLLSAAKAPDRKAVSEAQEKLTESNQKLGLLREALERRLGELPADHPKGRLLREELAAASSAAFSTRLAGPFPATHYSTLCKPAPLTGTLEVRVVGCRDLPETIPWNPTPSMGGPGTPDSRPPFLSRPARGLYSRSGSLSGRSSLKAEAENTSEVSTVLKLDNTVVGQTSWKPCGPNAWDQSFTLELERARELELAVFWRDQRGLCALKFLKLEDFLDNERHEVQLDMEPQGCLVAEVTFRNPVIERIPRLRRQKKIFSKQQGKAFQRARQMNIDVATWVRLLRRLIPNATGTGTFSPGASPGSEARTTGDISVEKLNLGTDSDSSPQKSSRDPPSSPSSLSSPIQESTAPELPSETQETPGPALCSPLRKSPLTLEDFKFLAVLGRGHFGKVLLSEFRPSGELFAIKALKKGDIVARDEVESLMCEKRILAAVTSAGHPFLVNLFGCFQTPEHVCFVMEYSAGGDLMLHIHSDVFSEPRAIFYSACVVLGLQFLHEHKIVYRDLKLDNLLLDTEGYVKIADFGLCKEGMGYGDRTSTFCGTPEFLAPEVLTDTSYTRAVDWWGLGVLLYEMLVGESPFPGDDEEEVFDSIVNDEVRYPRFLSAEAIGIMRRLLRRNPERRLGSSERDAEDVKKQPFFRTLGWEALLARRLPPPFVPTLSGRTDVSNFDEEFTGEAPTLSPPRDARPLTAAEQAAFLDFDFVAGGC
The target in test [7] is Casein kinase I isoform gamma-1 (Homo sapiens) (UniProt Q9HCP0). The experiment in a line: Inhibition of human recombinant CK1g1 at 500 nM in presence of ATP by radiometric assay relative to control.
Casein kinase I isoform gamma-1 (Homo sapiens), sequence (Q9HCP0 whole entry, looked up, canonical isoform): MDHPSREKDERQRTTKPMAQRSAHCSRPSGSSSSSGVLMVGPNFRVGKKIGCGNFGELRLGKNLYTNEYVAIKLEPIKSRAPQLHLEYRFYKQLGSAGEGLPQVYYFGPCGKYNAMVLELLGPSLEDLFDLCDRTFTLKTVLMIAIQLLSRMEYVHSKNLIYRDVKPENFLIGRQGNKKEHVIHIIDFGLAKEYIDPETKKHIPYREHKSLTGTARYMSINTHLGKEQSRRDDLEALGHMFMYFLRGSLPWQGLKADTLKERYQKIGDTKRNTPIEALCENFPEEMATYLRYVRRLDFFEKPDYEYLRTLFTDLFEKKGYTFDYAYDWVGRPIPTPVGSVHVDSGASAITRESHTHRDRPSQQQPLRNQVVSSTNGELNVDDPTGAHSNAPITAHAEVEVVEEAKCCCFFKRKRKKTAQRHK
Test [8] deals with T2, Ephrin type-B receptor 1 (Homo sapiens) (UniProt P54762).
T2 sequence (whole entry): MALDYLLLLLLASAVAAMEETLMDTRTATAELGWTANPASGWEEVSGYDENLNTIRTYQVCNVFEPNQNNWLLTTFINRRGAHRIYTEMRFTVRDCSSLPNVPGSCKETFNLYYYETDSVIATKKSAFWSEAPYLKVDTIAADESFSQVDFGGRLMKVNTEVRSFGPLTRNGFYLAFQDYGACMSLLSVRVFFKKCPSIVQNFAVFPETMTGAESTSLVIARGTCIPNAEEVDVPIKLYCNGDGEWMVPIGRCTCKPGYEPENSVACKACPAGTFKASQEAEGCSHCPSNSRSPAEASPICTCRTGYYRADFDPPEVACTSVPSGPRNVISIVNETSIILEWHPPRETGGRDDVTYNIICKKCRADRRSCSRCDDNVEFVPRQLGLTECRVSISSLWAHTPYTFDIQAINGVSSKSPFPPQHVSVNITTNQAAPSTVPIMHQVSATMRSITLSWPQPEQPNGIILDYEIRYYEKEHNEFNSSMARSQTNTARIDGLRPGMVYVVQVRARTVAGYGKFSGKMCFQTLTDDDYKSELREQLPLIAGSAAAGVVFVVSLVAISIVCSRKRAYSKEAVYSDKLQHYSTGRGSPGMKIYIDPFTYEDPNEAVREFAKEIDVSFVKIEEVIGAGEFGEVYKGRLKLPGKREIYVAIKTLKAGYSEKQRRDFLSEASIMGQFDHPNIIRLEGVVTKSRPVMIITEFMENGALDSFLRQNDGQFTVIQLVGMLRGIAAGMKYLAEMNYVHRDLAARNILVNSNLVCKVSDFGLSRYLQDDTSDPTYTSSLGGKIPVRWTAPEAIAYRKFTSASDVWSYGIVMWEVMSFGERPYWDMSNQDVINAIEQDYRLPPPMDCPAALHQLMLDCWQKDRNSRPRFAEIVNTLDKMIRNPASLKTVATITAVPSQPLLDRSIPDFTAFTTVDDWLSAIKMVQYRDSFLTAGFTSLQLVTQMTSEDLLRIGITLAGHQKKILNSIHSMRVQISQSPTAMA
Put plainly: Inhibition of human recombinant EphB1 at 500 nM related to control ULK1.

Test [9] has as its target Mitogen-activated protein kinase 11 (Homo sapiens) (UniProt Q15759). The experiment in a line: Inhibition of human recombinant p38beta at 500 nM related to control ULK1.
For test [10], the target named is Tyrosine-protein kinase Fes/Fps (Homo sapiens) (UniProt P07332). Put plainly: Inhibition of human recombinant FES at 15 nM in presence of ATP by radiometric assay relative to control.
Tyrosine-protein kinase Fes/Fps (Homo sapiens), sequence (P07332 whole entry): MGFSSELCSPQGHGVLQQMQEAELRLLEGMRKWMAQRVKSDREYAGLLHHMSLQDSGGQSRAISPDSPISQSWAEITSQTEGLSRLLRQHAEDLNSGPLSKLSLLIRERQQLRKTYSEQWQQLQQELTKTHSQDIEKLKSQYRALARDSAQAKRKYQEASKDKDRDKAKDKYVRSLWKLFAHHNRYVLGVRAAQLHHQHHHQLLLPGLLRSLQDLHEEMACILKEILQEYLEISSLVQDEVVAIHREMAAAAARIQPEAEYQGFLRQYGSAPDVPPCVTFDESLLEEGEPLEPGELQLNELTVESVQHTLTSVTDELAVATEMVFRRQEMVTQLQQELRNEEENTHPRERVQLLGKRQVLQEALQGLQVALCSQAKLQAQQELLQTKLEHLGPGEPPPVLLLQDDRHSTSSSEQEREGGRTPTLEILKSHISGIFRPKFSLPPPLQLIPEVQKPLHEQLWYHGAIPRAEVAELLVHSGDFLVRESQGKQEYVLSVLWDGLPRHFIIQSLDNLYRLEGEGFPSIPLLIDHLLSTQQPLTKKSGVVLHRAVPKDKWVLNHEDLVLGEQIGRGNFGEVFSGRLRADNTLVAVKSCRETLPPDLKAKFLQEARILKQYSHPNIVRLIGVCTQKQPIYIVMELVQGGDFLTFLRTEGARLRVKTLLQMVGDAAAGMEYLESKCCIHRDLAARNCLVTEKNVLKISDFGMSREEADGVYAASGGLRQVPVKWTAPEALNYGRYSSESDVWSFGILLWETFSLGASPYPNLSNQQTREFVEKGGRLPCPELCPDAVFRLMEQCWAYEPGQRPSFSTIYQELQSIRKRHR
Test [11] concerns the target Serine/threonine-protein kinase PAK 3 (Homo sapiens) (UniProt O75914). Put plainly: Inhibition of human recombinant PAK3 at 15 nM related to control ULK1.
Test [12] concerns the target Casein kinase I isoform gamma-2 (Homo sapiens) (UniProt P78368). The experiment in a line: Inhibition of human recombinant CK1g2 at 15 nM related to control ULK1.

This is an account of results in ChEMBL document CHEMBL5653631, “A Potent and Selective ULK1 Inhibitor Suppresses Autophagy and Sensitizes Cancer Cells to Nutrient Stress” (iScience, 2018).

Ephrin type-A receptor 5 (Homo sapiens), sequence (P54756 whole entry): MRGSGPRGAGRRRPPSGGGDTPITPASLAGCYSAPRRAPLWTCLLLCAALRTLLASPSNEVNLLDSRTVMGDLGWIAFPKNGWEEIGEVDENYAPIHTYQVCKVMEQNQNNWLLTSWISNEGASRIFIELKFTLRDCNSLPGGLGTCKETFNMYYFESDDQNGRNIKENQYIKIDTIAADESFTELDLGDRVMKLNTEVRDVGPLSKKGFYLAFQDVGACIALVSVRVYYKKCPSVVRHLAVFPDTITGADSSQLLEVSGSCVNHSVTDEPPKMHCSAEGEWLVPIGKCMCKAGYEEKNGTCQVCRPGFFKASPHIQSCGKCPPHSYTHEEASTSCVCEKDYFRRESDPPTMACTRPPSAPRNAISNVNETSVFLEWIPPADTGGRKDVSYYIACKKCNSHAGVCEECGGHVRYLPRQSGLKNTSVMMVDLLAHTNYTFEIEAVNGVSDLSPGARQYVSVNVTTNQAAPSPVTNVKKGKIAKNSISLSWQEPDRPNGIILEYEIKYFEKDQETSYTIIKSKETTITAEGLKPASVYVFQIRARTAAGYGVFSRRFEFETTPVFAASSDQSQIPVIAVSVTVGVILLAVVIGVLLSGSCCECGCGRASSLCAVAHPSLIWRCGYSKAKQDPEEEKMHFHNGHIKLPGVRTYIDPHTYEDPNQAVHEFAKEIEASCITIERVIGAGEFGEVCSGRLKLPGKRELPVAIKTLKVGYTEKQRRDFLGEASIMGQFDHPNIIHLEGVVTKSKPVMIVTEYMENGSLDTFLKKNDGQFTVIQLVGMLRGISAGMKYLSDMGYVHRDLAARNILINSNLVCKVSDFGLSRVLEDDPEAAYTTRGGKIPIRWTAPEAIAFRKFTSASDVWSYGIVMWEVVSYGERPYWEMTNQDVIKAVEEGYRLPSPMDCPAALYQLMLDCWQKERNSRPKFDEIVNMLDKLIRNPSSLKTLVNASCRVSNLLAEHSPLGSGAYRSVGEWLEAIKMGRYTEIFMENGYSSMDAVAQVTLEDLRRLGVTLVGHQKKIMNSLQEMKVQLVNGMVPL
Casein kinase I isoform gamma-2 (Homo sapiens), sequence (P78368 whole entry, looked up, canonical isoform): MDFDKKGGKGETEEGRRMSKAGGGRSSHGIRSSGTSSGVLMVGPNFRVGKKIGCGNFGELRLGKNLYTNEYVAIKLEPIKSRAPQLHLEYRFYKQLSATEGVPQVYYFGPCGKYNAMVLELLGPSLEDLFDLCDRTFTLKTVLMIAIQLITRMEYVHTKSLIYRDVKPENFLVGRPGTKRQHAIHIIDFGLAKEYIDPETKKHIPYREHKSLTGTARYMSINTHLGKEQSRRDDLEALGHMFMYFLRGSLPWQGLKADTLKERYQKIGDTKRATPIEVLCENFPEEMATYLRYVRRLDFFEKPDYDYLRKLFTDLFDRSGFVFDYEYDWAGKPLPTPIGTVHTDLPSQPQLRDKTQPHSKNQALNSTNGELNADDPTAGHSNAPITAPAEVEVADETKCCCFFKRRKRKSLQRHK
Mitogen-activated protein kinase 11 (Homo sapiens), sequence (Q15759 whole entry): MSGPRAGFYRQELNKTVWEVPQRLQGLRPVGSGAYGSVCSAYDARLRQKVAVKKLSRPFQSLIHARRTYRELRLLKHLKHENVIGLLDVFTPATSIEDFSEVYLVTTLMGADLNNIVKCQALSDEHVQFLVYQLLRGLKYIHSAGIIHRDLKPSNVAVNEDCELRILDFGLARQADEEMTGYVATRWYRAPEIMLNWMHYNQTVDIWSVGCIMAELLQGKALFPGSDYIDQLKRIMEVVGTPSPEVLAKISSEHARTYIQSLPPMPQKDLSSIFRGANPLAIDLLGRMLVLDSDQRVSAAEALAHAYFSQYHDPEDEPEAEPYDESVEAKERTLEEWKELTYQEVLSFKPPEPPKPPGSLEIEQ
Tyrosine-protein kinase Lyn (Homo sapiens), sequence (P07948 2-512 limits assumed): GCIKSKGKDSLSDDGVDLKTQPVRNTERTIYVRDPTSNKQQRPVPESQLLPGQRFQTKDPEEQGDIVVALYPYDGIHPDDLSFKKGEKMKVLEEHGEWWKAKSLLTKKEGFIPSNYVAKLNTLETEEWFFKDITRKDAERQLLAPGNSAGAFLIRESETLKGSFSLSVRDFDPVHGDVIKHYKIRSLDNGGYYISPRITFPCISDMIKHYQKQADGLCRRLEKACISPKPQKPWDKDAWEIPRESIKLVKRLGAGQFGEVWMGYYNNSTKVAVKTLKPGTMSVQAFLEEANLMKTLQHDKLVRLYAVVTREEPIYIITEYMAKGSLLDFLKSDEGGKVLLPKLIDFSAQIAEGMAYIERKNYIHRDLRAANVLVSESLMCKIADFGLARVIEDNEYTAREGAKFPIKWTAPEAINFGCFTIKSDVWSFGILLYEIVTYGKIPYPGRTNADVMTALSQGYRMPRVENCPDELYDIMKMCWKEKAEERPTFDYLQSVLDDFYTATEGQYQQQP

Take `O=C(N[C@@H](C1CC1)C(F)(F)F)c1cc(-c2cnn3cc(-c4ccc(F)cc4)cnc23)cs1`: the fold change (FC) in test [1] came to 0; in test [2], 0.03. In addition, the inhibition (usually how much of the control response was suppressed) in [3] came out at 13%; in test [4], 0%; in [5], 18%; in [6], 0%.
Turning to `CNC(=O)c1ccccc1Oc1nc(Nc2cc(OC)c(OC)c(OC)c2)ncc1Br`, in test [7], the inhibition was 0%. Also, the fold change (FC) in [8] came out at 0.14; in test [9], 0.03.
`CC(C)[C@H](NC(=O)c1cc(-c2cnn3cc(-c4ccc(OCCN5CCCCC5)cc4)cnc23)cs1)C(F)(F)F`: the inhibition in test [10] is 0%. For the same compound, the results for the fold change (FC) in test [11] and in test [12] were 0.05 and 0, respectively.
